Assay results from patent US8524744B2, “Arylamine ketones, their preparation methods, the pharmaceutical composition containing them and their use” (Institute of Mataria Medica, Chinese Academy of Medical …, priority 2004, dated 2013).
Structures can show the parent of a compound that is named as a salt.

Experiments:
[1] = target: T1, PAF receptors of macrophages from mouse peritoneal cavity (Mus musculus, UniProt Q62035); assay: competitive binding of [3H]-PAF to its receptors of macrophages from mouse peritoneal cavity; settings: 4° C, 150 min, read-out: Ki, competition with [3H]-PAF binding
T1 construct: The cells in peritoneal cavity were collected after injection for 3-4 days; endogenous in cells; host or cells: adherent peritoneal macrophages of C57BL/6 mice (primary)
Procedure: 4% of sodium mercaptoethanol was injected into C57BL/6 mouse peritoneal cavity to induce macrophages. The cells in peritoneal cavity were collected after injection for 3-4 days. 500 μl of suspension (5×10^5cells·ml^−1) was inoculated into 24-well culture plate which was placed into the incubator with 5% CO2 at 37° C for 2.5 hr. The non-adherent cells and serum in media were discarded. 490 μl of Tyrode-Hepes solution and 5 μl of [^3H]-PAF (final concentration: 2.8 nmol·L^−1) were added into each well. 5 μl of unlabeled PAF (5 μmol·L^1) was added into the well for the nonspecific binding. The series concentrations of compound were added into the well for the competitive binding and the corresponding volume of solvent was added into the wells for the total binding or the nonspecific binding. The reaction fluid was incubated at 4° C for 150 min and rinsed to wipe off the free labeled ligand. 300 μl of NaOH (0.3 mol·L^−1) was added to lyse the cells. The lysate fluid was transferred into a vial in which 7 ml of scintillation solution was added. The radioactivity strength was measured by scintillation counter.

[2] = system: production of TNF-α by macrophages from mouse peritoneal cavity; assay: production of TNF-α by macrophages from mouse peritoneal cavity (LPS, L929 bioassay); format: cell-based; settings: Macrophage, LPS 10 μg·ml^−1, 24 hr, read-out: IC50, inhibition of the production of TNF-α
Procedure: The macrophages from mouse peritoneal cavity were prepared as described before. 500 μl of cells were inoculated in 48-well plate which was incubated with 5% CO2 at 37° C. for 2.5 hr. The compounds and LPS (final concentration: 10 μg·ml^−1) were added into each well of the plate. After incubating for 24 hr the supernatant was collected. The content of TNF-α was determined by following method. 100 μl of L929 cells (2×10^5cells·ml^−1) with 100 μl of RPMI-1640 or supernatant collected above were inoculated into 96-well plate which incubated under 5% CO2 at 37° C. for 20 hr. The supernatant was discarded. 200 μl of 0.5% crystal violet was added into each well. 10 min later crystal violet outside of the cells was rinsed using normal saline. The cells were dried under room temperature. 100 μl of 10% SDS was added into each well. After the cells were lysed completely the optical density was measured at 570 nm. The well of 1640 media was as the control, The content of TNF-a was evaluated by the percentage of L929 cells survival.

[3] = system: cutaneous vascular permeability in mice induced by PAF; assay: increase of cutaneous vascular permeability in mice induced by PAF; format: in vivo, mouse; settings: orally, 50 mg·kg^−1, Kunming mice
Procedure: Kunming mice (male, 18-22 g) were randomly divided into two groups (treatment and control) with 10 animals for each group. The animals were orally administrated with the compounds or solvent, respectively. 1 hr later, 0.25 ml of 1% evans blue dye was injected into the tail vein. After 10 min, 0.1 ml of PAF (1×10^−8 mol·L^−1) was intracutaneously injected into the dorsal skin shaved. 1 hr later, the animals were sacrificed by cervical vertebra displacement. The skin with blue spot was cut off. The evans blue dye was extracted by 0.8 ml of mixed solution of acetone and normal saline (7:3). The supernatant was transferred into the 96-well plate. The optical density was measured at 620 nm.

[4] = system: rat paw swelling induced by carrageenan; assay: rat paw swelling induced by carrageenan; format: in vivo; settings: orally, 100 mg·kg^−1, Wistar rats
Procedure: Wistar rats (male, 180±20 g) were randomly divided into two groups (treatment and control) with 10 animals for each group. The animals were orally administrated with the compound or solvent, respectively. 1 hr later, 100 μl of 1% carrageenan was intracutaneously injected into the sole of right posterior foot. The perimeter of the ankle joint inflamed was measured at indicated time. The swelling level was evaluated by the difference of perimeters between the inflamed foot and non-inflamed foot.

[5] = system: rat arthritis induced by type II collagen; assay: rat arthritis induced by type II collagen; format: in vivo; settings: 100 mg · kg^−1 × 13 d, orally, Wistar rat
Procedure: (§1) 0.1 ml of type II H collagen (2 mg·ml^−1) was intracutaneously injected into the hind foot of Wistar rat (male, 100±10 g) (d0). Seven days later 0.1 ml of type II collagen was intracutaneously injected into the root of tail. At 19th day (d19) the animals inflamed were selected to supply the experiment and randomly divided into two groups. […] The perimeter of the ankle joint of two hind feet, weight of body was measured and the systemic inflammation (including the toes of front and hind feet, ears and tails) was judged by scoring every 3 days. At 41th day 40 μl of 0.2% type II collagen was intracutaneously injected into the right ear. Twenty-four hr later the edema level was evaluated by weighing the ponderance of ear piece (diameter: 8 mm). At 42th day the blood was collected by decapitating. The serum was separated by centrifugating. The contents of antibody for anti-type II collagen, cytokine TNF-α, IL-1β in serum were determined by ELISA kit.

[6] = system: delayed hypersensitivity in rats; assay: delayed hypersensitivity in rats (type II collagen ear challenge); format: in vivo, rat; settings: Dose 100 mg · kg^−1 × 13 d, orally
Procedure: as §1

IL-1β in serum = IL-1β in serum of rat with arthritis induced by type II collagen (ELISA); format: in vivo; settings: Dose 100 mg · kg^−1 × 13 d, orally
Procedure: as §1, with “At 19th day (d19) the animals inflamed were selected to supply the experiment and randomly divided into two groups.” left out

T1 sequence (Q62035 whole entry): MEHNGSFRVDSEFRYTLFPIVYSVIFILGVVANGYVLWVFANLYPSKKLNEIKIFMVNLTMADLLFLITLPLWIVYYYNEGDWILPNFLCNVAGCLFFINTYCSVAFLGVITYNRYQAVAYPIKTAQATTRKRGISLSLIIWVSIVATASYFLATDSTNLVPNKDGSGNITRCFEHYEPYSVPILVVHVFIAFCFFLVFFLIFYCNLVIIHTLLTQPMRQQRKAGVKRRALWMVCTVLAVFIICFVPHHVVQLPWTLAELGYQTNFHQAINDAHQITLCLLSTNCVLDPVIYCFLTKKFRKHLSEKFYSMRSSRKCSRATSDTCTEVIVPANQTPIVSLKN

CCOC(=O)C1CCN(CCC(=O)/C=C/c2ccc(Cl)cc2)CC1 [Compound 3, 5-[(4-Ethoxycarbonyl)piperidyl]-1-(4-chlorophenyl)-1-penten-3-one hydrochloride]
Ki [1]: 4.4 µM
IC50 [2]: 0.034 µM
Inhibition (%) of increase of cutaneous vascular permeability [3]: 53.23%
Inhibition (%) of rat paw swelling ([4]; 1 h): 49.7%
Inhibition (%) of rat paw swelling ([4]; 2 h): 55.5%
Inhibition (%) of rat paw swelling ([4]; 3 h): 44.2%
Inhibition (%) of rat paw swelling ([4]; 4 h): 29.0%
Inhibition (%) of rat paw swelling ([4]; 5 h): 19.4%
Inhibition (%) Score for systemic inflammation [5]: 52.6%
Inhibition (%) Swelling of left ankle joint [5]: 67.5%
Inhibition (%) Swelling of right ankle joint [5]: 68.8%
Inhibition (%) of delayed hypersensitivity [6]: 21.2%
Inhibition (%) of production of IL-1β in serum (IL-1β in serum): 45.7%
